# According to PubChem BioAssay AID190 (DTP/NCI, 2004):
# Values joined by “and” are separate entries in the source; they are usually repeats but may differ in a detail not shown here. Identical values can stand only once. Toxic doses and inconclusive results are not listed.
# Test system: AKR/Lw mice, AKR lymphoma ip, median survival T/C
# Experiment: NCI In Vivo Anticancer Drug Screen. Data for tumor model Lymphoma AKR (Transplanted) (intraperitoneal) in AKR/Lw mice
# Conditions: endpoint: median survival time, higher = longer survival
# Description: The antitumor activity of compounds was measured in mice bearing transplantable tumors. Survival or tumor size were measured and the results are expressed as the measurement made in the treated group (T) divided by the measurement made in the vehicle treated control group (C). The tumor model used in this assay is Lymphoma AKR (Transplanted) (intraperitoneal) in AKR/Lw mice
# [1] = dose: 100.0 mg/kg/injection, schedule: Q01DX001 (ip), vehicle: saline
# [2] = dose: 200.0 mg/kg/injection, schedule: Q01DX001 (ip), vehicle: saline
# [3] = dose: 400.0 mg/kg/injection, schedule: Q01DX001 (ip), vehicle: saline
# [4] = dose: 25.0 mg/kg/injection, schedule: Q01DX009 (ip), vehicle: Klucel (hydroxypropylcellulose) (HPC)
# [5] = dose: 50.0 mg/kg/injection, schedule: Q01DX009 (ip), vehicle: Klucel (hydroxypropylcellulose) (HPC)
# [6] = dose: 100.0 mg/kg/injection, schedule: Q04DX003 (ip), vehicle: other
# [7] = dose: 200.0 mg/kg/injection, schedule: Q04DX003 (ip), vehicle: other
structure (smiles),measurement,setting,value
CCCCCCCCCCCCCCCC(=O)OCC1OC(n2ccc(N)nc2=O)C(O)C1O (stereo not drawn),T/C,"dose: 0.07 mg/kg/injection, schedule: Q01DX015 (ip), vehicle: saline with Tween-80",150 % of control
same,T/C,"dose: 0.15 mg/kg/injection, schedule: Q01DX015 (ip), vehicle: saline with Tween-80",115 % of control
same,T/C,"dose: 0.31 mg/kg/injection, schedule: Q01DX010 (ip), vehicle: saline with Tween-80",110 % of control
same,T/C,"dose: 0.62 mg/kg/injection, schedule: Q01DX010 (ip), vehicle: saline with Tween-80",110 % of control
same,T/C,"dose: 0.62 mg/kg/injection, schedule: Q01DX015 (ip), vehicle: saline with Tween-80",375 % of control
same,T/C,"dose: 1.25 mg/kg/injection, schedule: Q01DX015 (ip), vehicle: saline with Tween-80",165 % of control
same,T/C,"dose: 2.5 mg/kg/injection, schedule: Q01DX015 (ip), vehicle: saline with Tween-80",225 % of control
same,T/C,"dose: 3.12 mg/kg/injection, schedule: Q01DX001 (ip), vehicle: saline with Tween-80",111 % of control
same,T/C,"dose: 3.75 mg/kg/injection, schedule: Q01DX005 (ip), vehicle: saline with Tween-80",100 % of control and 116 % of control
same,T/C,"dose: 3.75 mg/kg/injection, schedule: Q01DX015 (ip), vehicle: saline with Tween-80",153 % of control
same,T/C,"dose: 5.0 mg/kg/injection, schedule: Q01DX010 (ip), vehicle: saline with Tween-80",166 % of control and 218 % of control
same,T/C,"dose: 5.0 mg/kg/injection, schedule: Q01DX015 (ip), vehicle: saline with Tween-80",212 % of control
same,T/C,"dose: 6.25 mg/kg/injection, schedule: Q01DX001 (ip), vehicle: saline with Tween-80",102 % of control
same,T/C,"dose: 6.25 mg/kg/injection, schedule: Q14DX003 (ip), vehicle: saline with Tween-80",112 % of control
same,T/C,"dose: 7.5 mg/kg/injection, schedule: Q01DX015 (ip), vehicle: saline with Tween-80",200 % of control
same,T/C,"dose: 10.0 mg/kg/injection, schedule: Q01DX010 (ip), vehicle: saline with Tween-80",180 % of control and 261 % of control
same,T/C,"dose: 10.0 mg/kg/injection, schedule: Q01DX015 (ip), vehicle: saline with Tween-80",375 % of control
same,T/C,"dose: 12.5 mg/kg/injection, schedule: Q01DX001 (ip), vehicle: saline with Tween-80",108 % of control
same,T/C,"dose: 12.5 mg/kg/injection, schedule: Q09DX002 (ip), vehicle: saline with Tween-80",113 % of control
same,T/C,"dose: 12.5 mg/kg/injection, schedule: Q14DX003 (ip), vehicle: saline with Tween-80",155 % of control
same,T/C,"dose: 12.5 mg/kg/injection, schedule: Q14DX004 (ip), vehicle: saline with Tween-80",122 % of control
same,T/C,"dose: 15.0 mg/kg/injection, schedule: Q01DX015 (ip), vehicle: saline with Tween-80",250 % of control
same,T/C,"dose: 18.8 mg/kg/injection, schedule: Q01DX001 (ip), vehicle: saline with Tween-80",121 % of control
same,T/C,"dose: 25.0 mg/kg/injection, schedule: Q09DX002 (ip), vehicle: saline with Tween-80",121 % of control
same,T/C,"dose: 25.0 mg/kg/injection, schedule: Q14DX003 (ip), vehicle: saline with Tween-80",203 % of control
same,T/C,"dose: 30.0 mg/kg/injection, schedule: Q01DX015 (ip), vehicle: saline with Tween-80",70 % of control
same,T/C,"dose: 45.0 mg/kg/injection, schedule: Q01DX005 (ip), vehicle: saline with Tween-80",61 % of control and 110 % of control
same,T/C,"dose: 50.0 mg/kg/injection, schedule: Q09DX002 (ip), vehicle: saline with Tween-80",172 % of control
same,T/C,"dose: 50.0 mg/kg/injection, schedule: Q14DX003 (ip), vehicle: saline with Tween-80",183 % of control and 343 % of control
same,T/C,"dose: 100.0 mg/kg/injection, schedule: Q14DX003 (ip), vehicle: saline with Tween-80",381 % of control
same,T/C,"dose: 100.0 mg/kg/injection, schedule: Q14DX004 (ip), vehicle: saline with Tween-80",182 % of control
same,T/C,"dose: 150.0 mg/kg/injection, schedule: Q14DX003 (ip), vehicle: saline with Tween-80",375 % of control
CCCCCCCCC(=O)N1CC(C)OC(C)C1 (stereo not drawn),T/C,[1],100 % of control
same,T/C,[2],94 % of control
same,T/C,[3],100 % of control
COC(=O)C1CC(=O)C2(C)CCc3c(ccc4cc(OC)ccc34)C12 (stereo not drawn),T/C,"dose: 100.0 mg/kg/injection, schedule: Q01DX001 (sc), vehicle: steriod suspending solution",109 % of control
same,T/C,"dose: 200.0 mg/kg/injection, schedule: Q01DX001 (sc), vehicle: steriod suspending solution",104 % of control
N#CCCNc1ccc(NC(=O)C(F)(F)F)cc1,T/C,[4],96 % of control
same,T/C,[5],89 % of control
same,T/C,"dose: 50.0 mg/kg/injection, schedule: Q04DX003 (ip), vehicle: other",90 % of control
same,T/C,[1],103 % of control
same,T/C,[6],95 % of control
same,T/C,[2],100 % of control
same,T/C,[7],95 % of control
Cc1cc(NS(=O)(=O)c2ccc(N)cc2)no1,T/C,[1],110 % of control
same,T/C,[6],95 % of control
same,T/C,[2],103 % of control
same,T/C,[7],95 % of control
same,T/C,[3],96 % of control
same,T/C,"dose: 400.0 mg/kg/injection, schedule: Q04DX003 (ip), vehicle: other",95 % of control
CC(=O)NNC(=O)c1ccccn1,T/C,"dose: 3.1 mg/kg/injection, schedule: Q04DX003 (ip), vehicle: Klucel (hydroxypropylcellulose) (HPC)",92 % of control
same,T/C,"dose: 6.2 mg/kg/injection, schedule: Q01DX009 (ip), vehicle: Klucel (hydroxypropylcellulose) (HPC)",100 % of control
same,T/C,"dose: 6.2 mg/kg/injection, schedule: Q04DX003 (ip), vehicle: Klucel (hydroxypropylcellulose) (HPC)",88 % of control and 102 % of control
same,T/C,"dose: 12.5 mg/kg/injection, schedule: Q01DX009 (ip), vehicle: Klucel (hydroxypropylcellulose) (HPC)",112 % of control and 120 % of control
same,T/C,"dose: 12.5 mg/kg/injection, schedule: Q04DX003 (ip), vehicle: Klucel (hydroxypropylcellulose) (HPC)",89 % of control and 96 % of control
same,T/C,"dose: 25.0 mg/kg/injection, schedule: Q01DX001 (ip), vehicle: saline",97 % of control and 108 % of control
same,T/C,[4],109 % of control and 114 % of control
same,T/C,"dose: 25.0 mg/kg/injection, schedule: Q01DX009 (ip), vehicle: saline",87 % of control and 91 % of control
same,T/C,"dose: 25.0 mg/kg/injection, schedule: Q04DX003 (ip), vehicle: Klucel (hydroxypropylcellulose) (HPC)",97 % of control and 105 % of control and 112 % of control
same,T/C,"dose: 31.25 mg/kg/injection, schedule: Q01DX001 (ip), vehicle: Klucel (hydroxypropylcellulose) (HPC)",94 % of control
same,T/C,"dose: 37.5 mg/kg/injection, schedule: Q01DX009 (ip), vehicle: saline",98 % of control
same,T/C,"dose: 50.0 mg/kg/injection, schedule: Q01DX001 (ip), vehicle: Klucel (hydroxypropylcellulose) (HPC)",92 % of control
same,T/C,"dose: 50.0 mg/kg/injection, schedule: Q01DX001 (ip), vehicle: saline",95 % of control and 107 % of control
same,T/C,[5],120 % of control
same,T/C,"dose: 50.0 mg/kg/injection, schedule: Q01DX009 (ip), vehicle: saline",101 % of control and 104 % of control
same,T/C,"dose: 50.0 mg/kg/injection, schedule: Q04DX003 (ip), vehicle: Klucel (hydroxypropylcellulose) (HPC)",104 % of control and 109 % of control and 110 % of control
same,T/C,"dose: 62.5 mg/kg/injection, schedule: Q01DX001 (ip), vehicle: Klucel (hydroxypropylcellulose) (HPC)",94 % of control
same,T/C,"dose: 75.0 mg/kg/injection, schedule: Q01DX009 (ip), vehicle: saline",96 % of control
same,T/C,"dose: 100.0 mg/kg/injection, schedule: Q01DX001 (ip), vehicle: Klucel (hydroxypropylcellulose) (HPC)",114 % of control
same,T/C,[1],102 % of control and 115 % of control and 116 % of control
same,T/C,"dose: 100.0 mg/kg/injection, schedule: Q01DX009 (ip), vehicle: Klucel (hydroxypropylcellulose) (HPC)",123 % of control
same,T/C,"dose: 100.0 mg/kg/injection, schedule: Q01DX009 (ip), vehicle: saline",107 % of control
same,T/C,[6],117 % of control and 123 % of control
same,T/C,"dose: 100.0 mg/kg/injection, schedule: Q04DX003 (ip), vehicle: saline",116 % of control
same,T/C,"dose: 150.0 mg/kg/injection, schedule: Q01DX001 (ip), vehicle: Klucel (hydroxypropylcellulose) (HPC)",94 % of control
same,T/C,"dose: 150.0 mg/kg/injection, schedule: Q01DX009 (ip), vehicle: saline",105 % of control
same,T/C,"dose: 200.0 mg/kg/injection, schedule: Q01DX001 (ip), vehicle: Klucel (hydroxypropylcellulose) (HPC)",95 % of control
same,T/C,[2],97 % of control and 107 % of control
same,T/C,"dose: 200.0 mg/kg/injection, schedule: Q04DX003 (ip), vehicle: Klucel (hydroxypropylcellulose) (HPC)",87 % of control and 94 % of control
same,T/C,[7],107 % of control
same,T/C,"dose: 200.0 mg/kg/injection, schedule: Q04DX003 (ip), vehicle: saline",116 % of control
same,T/C,"dose: 250.0 mg/kg/injection, schedule: Q01DX001 (ip), vehicle: Klucel (hydroxypropylcellulose) (HPC)",107 % of control
same,T/C,"dose: 400.0 mg/kg/injection, schedule: Q01DX001 (ip), vehicle: Klucel (hydroxypropylcellulose) (HPC)",100 % of control
